These results are taken from patent US20240116910A1, “Heterocycles as WIP1 Inhibitors” (PMV Pharmaceuticals, Inc., priority 2022, published 2024).

In this test the target is recombinant His-tag Wip1(2-420) protein (amino acids #2-420) (Homo sapiens (Human), UniProt O15297). Description: Wip1(2-420) phosphatase enzyme FDP assay. The test is classed as biochemical. The following applies: fluorescein diphosphate (FDP) substrate, RT 2 hours, fluorescence Ex485/Em535; read-out: WIP1 (Truncated 2-420) FDP Assay: IC50.
Chain of recombinant His-tag Wip1(2-420) protein (amino acids #2-420) (O15297 2-420): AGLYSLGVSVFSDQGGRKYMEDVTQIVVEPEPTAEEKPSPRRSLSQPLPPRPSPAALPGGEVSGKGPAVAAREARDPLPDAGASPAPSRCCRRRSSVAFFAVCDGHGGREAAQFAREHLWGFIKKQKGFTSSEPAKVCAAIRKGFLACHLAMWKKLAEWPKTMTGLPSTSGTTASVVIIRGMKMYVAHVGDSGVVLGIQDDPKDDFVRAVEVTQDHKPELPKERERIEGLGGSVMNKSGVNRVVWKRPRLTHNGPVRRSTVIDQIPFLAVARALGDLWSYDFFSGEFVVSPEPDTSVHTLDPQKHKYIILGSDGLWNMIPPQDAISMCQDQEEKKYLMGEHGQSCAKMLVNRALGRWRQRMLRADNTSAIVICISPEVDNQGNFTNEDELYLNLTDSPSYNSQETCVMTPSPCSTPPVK
On to `O=C(N[C@@H](CC1CCCC1)C(=O)NC1CC1)c1ccc([C@@H]2CCc3c(Cl)cccc3N2)s1` [Compound 250, (2S)-2-({5-[(2S)-5-chloro-1,2,3,4-tetrahydroquinolin-2-yl]thiophen-2-yl}formamido)-3-cyclopentyl-N-cyclopropylpropanamide], for which the IC50 is 301 nM.
Take `COCCn1cc(NC(=O)[C@H](CC2CCCC2)NC(=O)c2ccc([C@H](C)Nc3cc(Cl)cnc3C)s2)cn1` [Compound 220, (2S)-2-({5-[(1S)-1-[(5-chloro-2-methylpyridin-3-yl)amino]ethyl]thiophen-2-yl}formamido)-3-cyclopentyl-N-[1-(2-methoxyethyl)-1H-pyrazol-4-yl]propanamide]: the half-maximal inhibitory concentration (IC50) was 6 nM.
On to `C[C@@H](c1ccc(C(=O)N[C@@H](CC2CCCC2)C(=O)NC2CC2)s1)N1CCN(C)c2ccc(Cl)cc21` [Compound 239, (2S)-2-({5-[(1S)-1-(7-chloro-4-methyl-1,2,3,4-tetrahydroquinoxalin-1-yl)ethyl]thiophen-2-yl}formamido)-3-cyclopentyl-N-cyclopropylpropanamide], for which the IC50 stood at 38 nM.
Turning to `COc1ccccc1-c1ncc(Cl)cc1N[C@H](C)c1ccc(C(=O)N[C@@H](CC2CCCC2)C(=O)NC2CC2)s1` [Compound 241, (2S)-2-({5-[(1R)-1-{[5-chloro-2-(2-methoxyphenyl)pyridin-3-yl]amino}ethyl]thiophen-2-yl}formamido)-3-cyclopentyl-N-cyclopropylpropanamide], the IC50 turned out to be 330 nM.
With `COc1ncc(Cl)cc1N[C@H](C)c1ccc(C(=O)N[C@@H](CC2CCCC2)C(=O)NC2CC2)s1` [Compound 35, (2S)-2-({5-[(1R)-1-[(5-chloro-2-methoxypyridin-3-yl)amino]ethyl]thiophen-2-yl}formamido)-3-cyclopentyl-N-cyclopropylpropanamide], the IC50 came out at 301 nM.
For the compound `Cc1ncc(Cl)cc1N[C@@H](C)c1ccc(C(=O)N[C@@H](CC2CCCC2)C(=O)Nc2ccn(C)n2)s1` [Compound 154, (2S)-2-({5-[(1S)-1-[(5-chloro-2-methylpyridin-3-yl)amino]ethyl]thiophen-2-yl}formamido)-3-cyclopentyl-N-(1-methyl-1H-pyrazol-3-yl)propanamide], the half-inhibitory concentration (IC50) was 10 nM.
Under `Cc1ncc(Cl)cc1N[C@@H](C)c1ccc(C(=O)N[C@@H](CC2CC3CC3C2)C(=O)NC2CC2)s1` (stereo partly drawn) [Compound 201, (2S)-3-{bicyclo[3.1.0]hexan-3-yl}-2-({5-[(1S)-1-[(5-chloro-2-methylpyridin-3-yl)amino]ethyl]thiophen-2-yl}formamido)-N-cyclopropylpropanamide] stands 7 nM; under `C[C@@H](c1ccc(C(=O)N[C@@H](CC2CCCC2)C(=O)NC23CC(C2)C3)s1)N(C)c1cncc(Cl)c1` [Compound 96, (2S)-N-{bicyclo[1.1.1]pentan-1-yl}-2-({5-[(1S)-1-[(5-chloropyridin-3-yl)(methyl)amino]ethyl]thiophen-2-yl}formamido)-3-cyclopentylpropanamide], 76 nM.
Take `Cc1ncc(Cl)cc1N[C@@H](C)c1ccc(C(=O)N[C@@H](CC2CCCC2)C(=O)Nc2ccc3ncccc3c2)s1` [Compound 243, (2S)-2-({5-[(1S)-1-[(5-chloro-2-methylpyridin-3-yl)amino]ethyl]thiophen-2-yl}formamido)-3-cyclopentyl-N-(quinolin-6-yl)propanamide]: the IC50 was 4 nM.
`Cc1ncc(Cl)cc1N[C@@H](C)c1ccc(C(=O)N[C@@H](CC2CCCC2)C(=O)Nc2ccnc(O)c2)s1` [Compound 139, (2S)-2-({5-[(1S)-1-[(5-chloro-2-methylpyridin-3-yl)amino]ethyl]thiophen-2-yl}formamido)-3-cyclopentyl-N-(2-hydroxypyridin-4-yl)propanamide]: the IC50 was 5 nM.
For the compound `Cc1ncc(Cl)cc1N[C@@H](C)c1ccc(C(=O)N[C@@H](CC2CCCC2)C(=O)Nc2ccc(C#N)cc2)s1` [Compound 85, (2S)-2-({5-[(1S)-1-[(5-chloro-2-methylpyridin-3-yl)amino]ethyl]thiophen-2-yl}formamido)-N-(4-cyanophenyl)-3-cyclopentylpropanamide], the IC50 worked out at 7 nM.
Regarding `C[C@@H](Nc1cc(Cl)cnc1-c1cccc(Cl)c1)c1ccc(C(=O)N[C@@H](CC2CCCC2)C(=O)NC2CC2)s1` [Compound 230, (2S)-2-({5-[(1R)-1-{[5-chloro-2-(3-chlorophenyl)pyridin-3-yl]amino}ethyl]thiophen-2-yl}formamido)-3-cyclopentyl-N-cyclopropylpropanamide], the IC50 was determined as 196 nM.
In the case of `CCNC(=O)[C@H](CC1CCCCC1)NC(=O)c1ccc([C@H](C)Nc2cc(Cl)cnc2C)s1` [Compound 264, (2S)-2-({5-[(1S)-1-[(5-chloro-2-methylpyridin-3-yl)amino]ethyl]thiophen-2-yl}formamido)-3-cyclohexyl-N-ethylpropanamide], the half-maximal inhibitory concentration (IC50) is 7 nM.
Regarding `Cc1cc(NC(=O)[C@H](CCC(C)(C)C)NC(=O)c2ccc([C@H](C)Nc3cc(Cl)cnc3C)s2)ccn1` [Compound 157, (2S)-2-({5-[(1S)-1-[(5-chloro-2-methylpyridin-3-yl)amino]ethyl]thiophen-2-yl}formamido)-5,5-dimethyl-N-(2-methylpyridin-4-yl)hexanamide], the IC50 was found to be 9 nM.
In the case of `Cc1ncc(Cl)cc1N[C@@H](C)c1ccc(C(=O)N[C@@H](CC2CCCC2)C(=O)NC2CCC(O)C2)s1` (stereo partly drawn) [Compound 263, (2S)-2-({5-[(1S)-1-[(5-chloro-2-methylpyridin-3-yl)amino]ethyl]thiophen-2-yl}formamido)-3-cyclopentyl-N-(3-hydroxycyclopentyl)propanamide], the half-inhibitory concentration (IC50) was 13 nM.
As for `COc1ccc(-c2ncc(Cl)cc2N[C@@H](C)c2ccc(C(=O)N[C@@H](CC3CCCC3)C(=O)NC3CC3)s2)cc1` [Compound 236, (2S)-2-({5-[(1S)-1-{[5-chloro-2-(4-methoxyphenyl)pyridin-3-yl]amino}ethyl]thiophen-2-yl}formamido)-3-cyclopentyl-N-cyclopropylpropanamide], the IC50 is 7 nM.
Under `Cc1ncc(Cl)cc1N[C@@H](C)c1ccc(C(=O)N[C@@H](CC2CCCC2)C(=O)Nc2cnn(CC(F)(F)F)c2)s1` [Compound 147, (2S)-2-({5-[(1S)-1-[(5-chloro-2-methylpyridin-3-yl)amino]ethyl]thiophen-2-yl}formamido)-3-cyclopentyl-N-[1-(2,2,2-trifluoroethyl)-1H-pyrazol-4-yl]propanamide] stands 6 nM; under `Cc1ncc(Cl)cc1N[C@@H](C)c1ccc(C(=O)N[C@@H](CC2CCC3CC32)C(=O)NC23CC(C#N)(C2)C3)s1` (stereo partly drawn) [Compound 111, (2S)-3-{bicyclo[3.1.0]hexan-2-yl}-2-({5-[(1S)-1-[(5-chloro-2-methylpyridin-3-yl)amino]ethyl]thiophen-2-yl}formamido)-N-{3-cyanobicyclo[1.1.1]pentan-1-yl}propanamide], 12 nM; under `COc1ccccc1-c1ncc(Cl)cc1N[C@@H](C)c1ccc(C(=O)N[C@@H](CC2CCCC2)C(=O)NC2CC2)s1` [Compound 242, (2S)-2-({5-[(1S)-1-{[5-chloro-2-(2-methoxyphenyl)pyridin-3-yl]amino}ethyl]thiophen-2-yl}formamido)-3-cyclopentyl-N-cyclopropylpropanamide], 7 nM.
The same measure for `CC[C@@H](Nc1cc(Cl)cnc1C)c1ccc(C(=O)N[C@@H](CC2CCCC2)C(=O)NC23CC(C2)C3)s1` [Compound 67, (2S)-N-{bicyclo[1.1.1]pentan-1-yl}-2-({5-[(1R)-1-[(5-chloro-2-methylpyridin-3-yl)amino]propyl]thiophen-2-yl}formamido)-3-cyclopentylpropanamide]: 270 nM.
With `Cc1ncc(Cl)cc1N[C@@H](C)c1ccc(C(=O)N[C@@H](CC2CCCC2)C(=O)Nc2cnn(CCN(C)C)c2)s1` [Compound 151, (2S)-2-({5-[(1S)-1-[(5-chloro-2-methylpyridin-3-yl)amino]ethyl]thiophen-2-yl}formamido)-3-cyclopentyl-N-{1-[2-(dimethylamino)ethyl]-1H-pyrazol-4-yl}propanamide], the IC50 was found to be 6 nM.
Consider `COC(=O)[C@H]1C[C@H](NC(=O)[C@H](CC2CCCC2)NC(=O)c2ccc([C@H](C)Nc3cc(Cl)cnc3C)s2)C1` [Compound 94, methyl (1r,3r)-3-[(2S)-2-({5-[(1S)-1-[(5-chloro-2-methylpyridin-3-yl)amino]ethyl]thiophen-2-yl}formamido)-3-cyclopentylpropanamido]cyclobutane-1-carboxylate], for which the IC50 stood at 5 nM.
For `Cc1ncc(Cl)cc1N[C@@H](C)c1ccc(C(=O)N[C@@H](CC2CCCC2)C(=O)N[C@@H]2CC[C@H](F)C2)s1` [Compound 258, (2S)-2-({5-[(1S)-1-[(5-chloro-2-methylpyridin-3-yl)amino]ethyl]thiophen-2-yl}formamido)-3-cyclopentyl-N-[(1R,3S)-3-fluorocyclopentyl]propanamide], the IC50 was found to be 7 nM.
`Cc1ncc(Cl)cc1N[C@H](Cn1cccn1)c1ccc(C(=O)N[C@@H](CC2CCCC2)C(=O)NC2CC2)s1` [Compound 165, (2S)-2-({5-[(1R)-1-[(5-chloro-2-methylpyridin-3-yl)amino]-2-(1H-pyrazol-1-yl)ethyl]thiophen-2-yl}formamido)-3-cyclopentyl-N-cyclopropylpropanamide]: the concentration for half-maximal inhibition (IC50) was found to be 378 nM.
On to `Cc1ncc(Cl)cc1N[C@@H](C)c1ccc(C(=O)N[C@@H](CC2CCCC2)C(N)=O)s1` [Compound 138, (2S)-2-({5-[(1S)-1-[(5-chloro-2-methylpyridin-3-yl)amino]ethyl]thiophen-2-yl}formamido)-3-cyclopentylpropanamide], for which the IC50 is 19 nM.
With `Cc1ncc(Cl)cc1N[C@@H](C)c1ccc(C(=O)N[C@H](CC2CCCC2)C(=O)Nc2ccnc(Cl)c2)s1` [Compound 142, (2R)-2-({5-[(1S)-1-[(5-chloro-2-methylpyridin-3-yl)amino]ethyl]thiophen-2-yl}formamido)-N-(2-chloropyridin-4-yl)-3-cyclopentylpropanamide], the half-inhibitory concentration (IC50) was found to be 2500 nM.
